# Measured values from patent publication US20220347180A1, “ENHANCING CANCER THERAPY TREATMENT WITH BH3 MIMETICS” (THE REGENTS OF THE UNIVERSITY OF COLORADO, A BODY CORPORATE, priority 2019, published 2022).
# Entries after “also recorded” stand apart in the source; their conditions may differ. Read-outs that look alike come from different tables or passages of the source.
# Key:
# SKMEL-28 melanoma line = assay: ATP viability assay (Cell Titer-Glo); type: cell-based; details: Homo sapiens, SK-MEL-28; SKMEL-28, BRAFV600E, 48 h
# Method: (§1) Cells were treated for 48 h for viability assays and primary sphere assays.
# (§2) ATP viability assay, primary and secondary sphere assays: Cell viability was evaluated via Cell Titer-Glo Luminescent cell viability assay (Promega Corp., Madison, Wis.) according to the manufacturer's protocol. All sphere assays were completed as previously described. The experimental schematic for the primary and secondary sphere assays was described previously. All assays were performed in no less than triplicate for each cell line and repeated at least three times for each line. Drug treatments began 120 h after seeding in the primary sphere assay and 24 h after seeding for the monolayer ATP assay.
# (§3) Calculation of IC50 and Combination index (CI) values: IC50 values were calculated from the relative viability results of ATP assays, and were derived by a sigmoidal dose (log)-response (variable slope) curve with GraphPad Prism 8 software. […] This method uses a median-effect equation and Combination-index theorem to calculate synergy between two drugs and identifies the drug interaction as values […]. This is defined as combination-index values (CI values). The program requires entering a series of “dose (D) and effect (fa)” into the program for each drug alone as well as the combination therapy.
# Hs852T melanoma line = assay: ATP viability assay (Cell Titer-Glo); type: cell-based; details: Homo sapiens, WT for BRAF, 48 h
# Method: as §1, §2, §3
# MB4667 melanoma line = assay: ATP viability assay (Cell Titer-Glo); type: cell-based; details: Homo sapiens; MB4667, NRAS Q61R, acral, 48 h
# Method: as §1, §2, §3
# MB2724 melanoma line = assay: ATP viability assay (Cell Titer-Glo); type: cell-based; details: Homo sapiens; MB2724, Triple WT, acral, 48 h
# Method: as §1, §2, §3
# MB2141 melanoma line = assay: ATP viability assay (Cell Titer-Glo); type: cell-based; details: Homo sapiens; MB2141, EML4-ALK, mucosal, 48 h
# Method: as §1, §2, §3
# MB3429 melanoma line = assay: ATP viability assay (Cell Titer-Glo); type: cell-based; details: Homo sapiens, 48 h
# Method: as §1, §2, §3
# MB2114 melanoma line = assay: ATP viability assay (Cell Titer-Glo); type: cell-based; details: Homo sapiens; MB2114, BRAF V600E, 48 h
# Method: as §1, §2, §3
# MB1692 melanoma line = assay: ATP viability assay (Cell Titer-Glo); type: cell-based; details: Homo sapiens; MB1692, AGK-BRAF, 48 h
# Method: as §1, §2, §3
# MB3961 melanoma line = assay: ATP viability assay (Cell Titer-Glo); type: cell-based; details: Homo sapiens; MB3961, NRAS Q61K, 48 h
# Method: as §1, §2, §3
# A375 melanoma line = assay: ATP viability assay (Cell Titer-Glo); type: cell-based; details: Homo sapiens, A-375; A375, BRAFV600E, 48 h
# Method: as §1, §2, §3
# WM852c melanoma line = assay: ATP viability assay (Cell Titer-Glo); type: cell-based; details: Homo sapiens, NRAS, 48 h
# Method: as §1, §2, §3
# MB3616 melanoma line = assay: ATP viability assay (Cell Titer-Glo); type: cell-based; details: Homo sapiens; MB3616, NRAS Q61K, 48 h
# Method: as §1, §2, §3
# 1205Lu melanoma line = assay: ATP viability assay (Cell Titer-Glo); type: cell-based; details: Homo sapiens, BRAFV600E, 48 h
# Method: as §1, §2, §3
# Hs294T melanoma line = assay: ATP viability assay (Cell Titer-Glo); type: cell-based; details: Homo sapiens, Hs 294T, WT for BRAF/NRAS, 48 h
# Method: as §1, §2, §3
# MB3447 melanoma line = assay: ATP viability assay (Cell Titer-Glo); type: cell-based; details: Homo sapiens; MB3447, Triple WT, 48 h
# Method: as §1, §2, §3
# [1] = higher doses and more frequently than in the current study; cited from earlier work
# [2] = system: regulatory T cells (Tregs); details: cited from earlier work
# MP41 = MP41 uveal melanoma xenograft
# Method: A uveal melanoma cell line, MP41, was used in the xenograft study, and tumor volume Panel (a) and weight of the mice Panel (b) were measured.
# The viability of the DMSO control for each cell line was set to 100%. Panel (c) A uveal melanoma line, MP41, was used in the xenograft study, and tumor volume and weight of the mice were measured.
# Drug treatments started when the tumors were palpable. Treatment groups consisted of randomly divided mice of at least 8 tumors each group. All drugs were prepared according to the manufacturer's protocol, or previously described. S63845 was administered at 25 mg/kg twice weekly. […] The tumor samples were collected at the end of the experiment for further studies.
# [3] = system: tumor-infiltrating immune cells; assay: Flow cytometry of tumor-infiltrating immune cells, B16 syngeneic model; type: in vivo, mouse; details: 40 mg/kg, day 10 post tumor implantation
# Method: (§4) 2.0×10^5 B16F10 melanoma cells were injected in the flanks of 7-week-old C57BL/6J mice on day 0. MCL1 inhibitors was administered retro-orbitally daily at 40 mg/kg, starting at day 6 post tumor implantation. […] Flow cytometry of tumor-infiltrating immune cells of Veh (vehicle control) and 40 mg/kg MCL1 inhibitor S63845 treated tumors at day 10 post tumor implantation. […] Similar experiments as in a, except with i.p injection. […] 2.0×10^5 B16F10 melanoma cells were injected in the flanks of 7-week-old C57BL/6J mice. MCL1-i was administered through retro-orbital injection daily at 40 mg/kg on days 5-9, and anti-PD1 was injected intraperitoneally at 250 ug on days 7, 11, 14 and 16.
# (§5) Tumor volume was measured every 2 days with digital calipers. The following formula was used to calculate tumor volume: tumor volume (mm3)=(length in mm×width in mm2)/2.
# human melanoma lines = assay: ATP viability assay, panel of melanoma lines; type: cell-based; details: single drug, up to 2.5 uM, 48 h
# Method: as §1, §2, §3
# A375 cells = assay: Viability of A375 cells with BCL2 or MCL1 knockdown; type: cell-based, human; details: A375, 48 h
# Description: (a and b) Comparison between two genotypic groups: BRAF-hotspot mutated (MUT) (n=110) and BRAF-WT (WT) (harboring RAS hotspot mutated, any NF1 mutated, and triple wild type n=122). Panel (a) mRNA expression values for BCL2, CASP8, PDCD4, and MCL1. Panel (b) Relative RPPA protein expression values for PDCD4, CASP8, and BCL2. MCL1 was not included on the RPPA panel. Each dot represents an individual sample, and the horizontal line represents the mean. Panels (c) and (d) show the effects of BCL2 or MCL1 knockdown in A375 cells. Cells were treated with the indicated drugs for 48 h. […] Error bars represent +/−SEM.
# Creation of short hairpin RNA transduced cell lines and CRISPR/Cas9-mediated BIM knockout cell lines: ShRNA lentiviral particles (Santa Cruz Biotechnology, Dallas, Tex.) were used to construct stable cell lines as previously described. BIM-knockout lines were generated using CRISPR/Cas9 technology, as previously described.
# B16F10 melanoma cells = type: in vivo; details: retro-orbitally daily at 40 mg/kg from day 6 post implantation
# Method: as §4, §5
# Tumor volume was measured every 2 days with digital calipers.
Compound,IC50 (SKMEL-28 melanoma line),IC50 (Hs852T melanoma line),IC50 (MB4667 melanoma line),IC50 (MB2724 melanoma line),IC50 (MB2141 melanoma line),IC50 (MB2114 melanoma line),IC50 (MB1692 melanoma line),IC50 (MB3961 melanoma line),IC50 (A375 melanoma line),IC50 (WM852c melanoma line),IC50 (MB3616 melanoma line),IC50 (1205Lu melanoma line),IC50 (Hs294T melanoma line),IC50 (MB3447 melanoma line),also measured
"CC1(C)CCC(CN2CCN(c3ccc(C(=O)NS(=O)(=O)c4ccc(NCC5CCOCC5)c([N+](=O)[O-])c4)c(Oc4cnc5[nH]ccc5c4)c3)CC2)=C(c2ccc(Cl)cc2)C1 [ABT-199, venetoclax]",> 10 µM,8.8 µM,7.69 µM,> 10 µM,> 10 µM,> 10 µM,> 10 µM,> 10 µM,> 10 µM,> 10 µM,9.69 µM,> 10 µM,> 10 µM,> 10 µM,"IC50 (MB3429 melanoma line; MB3429, BRAF G596C, GNA11 R183C, read-out: IC50): 3.91 µM"
Cc1c2c(nn1C)CSCc1cc(n(C)n1)CSc1cc(c3ccccc3c1)OCCCc1c(C(=O)O)n(C)c3c-2c(Cl)ccc13 [AZD5991],–,–,–,–,–,–,–,–,–,–,–,–,–,–,toxicity [1]: Minimal toxicity
COC1=CC(c2cc3ccccc3[nH]2)=N/C1=C\c1[nH]c(C)cc1C [GX15-070],–,–,–,–,–,–,–,–,–,–,–,–,–,–,cell death of regulatory T cells [2]: preferentially induces cell death
Cc1c(-c2c(-c3ccc(F)o3)sc3ncnc(O[C@H](Cc4ccccc4OCc4ccnn4CC(F)(F)F)C(=O)O)c23)ccc(OCCN2CCN(C)CC2)c1Cl [S63845],4 µM,6.14 µM,> 10 µM,3.24 µM,2.67 µM,> 10 µM,7.42 µM,2.91 µM,6.33 µM,7.81 µM,8.11 µM,7.2 µM,2.9 µM,5.49 µM,IC50 (MB3429 melanoma line): 8.85 µM; mouse weight (MP41): without affecting mouse weight; tumor growth (tumor volume) (MP41): significantly inhibited uveal melanoma tumor growth; frequency of MDSCs in tumors [3]: drastically decreased; frequency of tumor-infiltrating CD8+ T cells [3]: increased; effect on cell viability (human melanoma lines): little effect on cell viability; sensitivity after BCL2 knockdown (shBCL2) (A375 cells): sensitized cells; tumor growth (B16F10 melanoma cells): blocked tumor growth; also recorded: inhibited tumor growth curve
